# Assay results as given in ChEMBL document CHEMBL5230154, “Chemical probe of AHL modulators on quorum sensing in Gram-Negative Bacteria and as antiproliferative agents: A review” (Eur J Med Chem, 2021).
# Key:
# Pseudomonas aeruginosa [1] = test: Antibiofilm activity against Pseudomonas aeruginosa PAO1 NCTC 10332 assessed as inhibition of biofilm formation incubated for 24 hrs by crystal violet staining based assay; type: functional, organism-based; conditions: PAO1 NCTC 10332, 24 h
# [2] = Inhibition of quorum sensing system in Pseudomonas aeruginosa PA14 assessed as inhibition of pyocyanin production by UV-vis spectrophotometric assay
# Pseudomonas aeruginosa [3] = test: Anti-motility activity against Pseudomonas aeruginosa PAO1 NCTC 10332 assessed as reduction in swarming at 50 uM and measured after 16 hr by swarming assay; type: functional; parameters: scale not given: the % may be the effect or the level left
# Pseudomonas aeruginosa [4] = test: Anti-motility activity against Pseudomonas aeruginosa PAO1 NCTC 10332 assessed as reduction in swimming at 50 uM and measured after 18 hr; type: functional; parameters: scale not given: the % may be the effect or the level left
# [5] = Inhibition of quorum sensing system in Pseudomonas aeruginosa PAO1 assessed as inhibition of RhlR expression incubated for 4 hrs by RT-PCR analysis
# [6] = Inhibition of quorum sensing system in Pseudomonas aeruginosa PAO1 assessed as inhibition of pqsR expression incubated for 4 hrs by RT-PCR analysis
# [7] = Antagonist activity against quorum sensing system in Pseudomonas aeruginosa PAO1 transfected with lasB-lacZ reporter gene assessed as inhibition of beta-galactosidase activity incubated for 24 hrs by elastin-Congo red assay
# [8] = Antagonist activity against quorum sensing system in Pseudomonas aeruginosa PAO1 transfected with rhlA-lacZ reporter gene assessed as inhibition of beta-galactosidase activity incubated for 24 hrs by elastin-Congo red assay
IC50 (Pseudomonas aeruginosa [1]) [µM],IC50 [2] [µM],IC50 [5] [µM],IC50 [6] [µM],IC50 [7] [µM],IC50 [8] [µM],Compound,Activity (Pseudomonas aeruginosa [3]) [%],Activity (Pseudomonas aeruginosa [4]) [%]
50,12,40,25,,,Clc1ccc2c(NCCCCCCCCNCc3cc4ccccc4o3)ccnc2c1,40,40
,,,,80,90,CCCCCCCCCC(=O)NC1CCCC1 [N-CYCLOPENTYLDECANAMIDE],,
